Test results reported in patent US20060263802A1 (priority 2003, published 2006).

Assays:
Type in all cases: binding
[1] = test system: human monoclonal antibody CRJB
[2] = test system: human monoclonal antibody CRJA
[3] = test system: human monoclonal antibody CRJB; remark: listed apart in the source
[4] = test system: human monoclonal antibody CR57
[5] = test system: human monoclonal antibody CRJA; remark: listed apart in the source
[6] = test system: human monoclonal antibody CR57; remark: listed apart in the source

Sequence | Binding of CRJB to linear peptide (PEPSCAN-ELISA signal) [1] | Binding of CRJA to linear peptide (PEPSCAN-ELISA signal) [2] | Binding of CRJB (10 μg/ml) to looped/cyclic peptide (PEPSCAN-ELISA) [3] | Binding of CR57 (10 μg/ml) to looped/cyclic peptide (PEPSCAN-ELISA) [4] | Binding of CRJA (10 μg/ml) to looped/cyclic peptide (PEPSCAN-ELISA) [5] | Binding of CR57 to linear peptide (PEPSCAN-ELISA signal) [6] | Binding of CRJB (10 μg/ml) to looped/cyclic peptide (PEPSCAN-ELISA signal) [3] | Binding of CR57 (10 μg/ml) to looped/cyclic peptide (PEPSCAN-ELISA signal) [4] | Binding of CRJA (10 μg/ml) to looped/cyclic peptide (PEPSCAN-ELISA signal) [5]
QHMELLESSVIPLVH | 146 | 87 | 97 | 132 | 111 | 98 | – | – | –
GPWSPIDIHHLSCPN | 114 | 72 | – | – | – | 68 | 78 | 78 | 97
VIPLVHPLADPSTVF | 141 | 92 | 92 | 77 | 84 | 69 | – | – | –
ADLDPYDRSLHSRVF | 121 | 100 | – | – | – | 70 | 73 | 93 | 92
CTGVVTEAENYTNFV | 123 | 89 | – | – | – | 76 | 85 | 92 | 101
RWLRTVKTTKESLVI | 110 | 72 | – | – | – | 40 | 75 | 77 | 71
VGYILAIKMNGFTCT | 93 | 70 | – | – | – | 77 | 86 | 97 | 105
LSGFSYMELKVGYIL | 132 | 82 | – | – | – | 71 | 74 | 72 | 83
DFRSDEIEHLVVEEL | 103 | 86 | 58 | 127 | 93 | 99 | – | – | –
FVGYVTTTFKRKHFR | 111 | 79 | – | – | – | 70 | 82 | 117 | 102
LPSKGCLRVGGRCHP | 119 | 58 | 85 | 80 | 52 | 77 | – | – | –
VRTWNEILPSKGCLR | 124 | 105 | 98 | 121 | 114 | 90 | – | – | –
